Among the data in patent US20250214980A1, “MULTICYCLIC COMPOUNDS” (SLAP Pharmaceuticals LLC, priority 2022, published 2025) are IC50 values, retold here.

Bounds are passed on as bounds.

For one assay, the target named is T1, PARP1 (Homo sapiens (Human), UniProt P09874). Description: cell-based assay (Proliferation Assay (PARP Inhibitors) in DLD-1 wt and DLD-1 BRCA2), Table 1. How it is done: Proliferation Assay (PARP Inhibitors) in DLD-1 wt and DLD-1 BRCA2
DLD-1-wt and DLD-1 mutant cells are cultured in RPMI 1640+10% FBS+1% PS. The cells are harvested into culture media for 2-3 days. The cells are diluted into culture media (density 2˜3×10^6) and 40 μL of cell suspension (50 cells/well for DLD-1 wt and 50 cells/well for DLD-1 BRCA (-/-). The plates are covered and spun at rt at 1000 rpm, for 1 minute and then transferred. The plates are placed into 37° C. 5% CO2 incubator overnight. Test compounds are dissolved at 10 mM DMSO stock solution and then 40 μL of stock solution is transferred to a 384 PP-plate. A 10-point dilution is carried out by transferring 10 uL compound into 30 μL DMSO by using TECAN (EVO200) liquid handler. The plates are spun at rt at 1000 rpm for 1 minute and then shaken on a plate shaker for 2 minutes. Forty nL of diluted compound is transferred into the cell plate by using a liquid handler. After 7 days of incubation, a CTG detection assay is performed. The CTG detection assay is carried out by removing the plates from the incubators and then equilibrated at rt for 15 minutes. The CellTiter Glo reagents are thawed and equilibrated at rt. CellTiter-Glo reagent ([…]) is added into each well, and the plates are placed at rt for 30 minutes followed by reading on EnVision. The inhibition activity is calculated using the formula: % Inhibition=100×(LumHC−LumSample)/(LumHC−LumLC).
In Table 1, ‘A’ indicates an IC50 of <0.1 μM, ‘B’ indicates an IC50 of ≥0.1 μM and <1.0 μM, and ‘C’ indicates an IC50 of ≥[…]. As shown by the results in Table 1, compounds of Formula (I), including pharmaceutically acceptable salts thereof, are effective PARP1 inhibitors.
Target sequence in this assay (P09874 whole entry): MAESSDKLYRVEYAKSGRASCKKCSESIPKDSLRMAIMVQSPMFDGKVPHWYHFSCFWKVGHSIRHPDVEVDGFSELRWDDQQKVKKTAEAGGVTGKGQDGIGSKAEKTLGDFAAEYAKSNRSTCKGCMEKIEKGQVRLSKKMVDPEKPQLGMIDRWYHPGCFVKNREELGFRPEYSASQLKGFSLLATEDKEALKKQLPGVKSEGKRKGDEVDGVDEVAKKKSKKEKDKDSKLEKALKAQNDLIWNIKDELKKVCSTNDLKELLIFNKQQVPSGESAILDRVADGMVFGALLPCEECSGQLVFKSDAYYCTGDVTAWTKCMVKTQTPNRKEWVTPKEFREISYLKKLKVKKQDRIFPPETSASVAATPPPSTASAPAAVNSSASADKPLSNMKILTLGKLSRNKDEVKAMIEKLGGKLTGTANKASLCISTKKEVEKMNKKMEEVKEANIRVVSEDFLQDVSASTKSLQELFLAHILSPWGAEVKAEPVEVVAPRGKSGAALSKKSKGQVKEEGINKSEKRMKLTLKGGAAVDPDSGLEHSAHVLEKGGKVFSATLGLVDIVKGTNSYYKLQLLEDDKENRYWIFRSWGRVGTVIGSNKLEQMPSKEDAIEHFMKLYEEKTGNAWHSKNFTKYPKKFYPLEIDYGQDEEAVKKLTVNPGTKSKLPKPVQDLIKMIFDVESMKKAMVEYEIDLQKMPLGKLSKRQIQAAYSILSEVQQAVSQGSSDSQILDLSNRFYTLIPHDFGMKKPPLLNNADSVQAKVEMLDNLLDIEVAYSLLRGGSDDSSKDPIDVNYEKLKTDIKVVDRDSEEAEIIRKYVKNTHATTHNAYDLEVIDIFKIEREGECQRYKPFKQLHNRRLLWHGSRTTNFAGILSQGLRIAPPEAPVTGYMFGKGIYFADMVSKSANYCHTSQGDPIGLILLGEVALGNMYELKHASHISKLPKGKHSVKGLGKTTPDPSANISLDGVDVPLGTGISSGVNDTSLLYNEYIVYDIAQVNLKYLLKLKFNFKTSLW
The term IC50 denotes the point on the concentration scale where inhibition reaches its midpoint. Read a low IC50 as higher potency. `CC[C@@H]1Oc2ccc(CN3CCN(c4ccc(C(=O)NC)nc4)CC3)cc2NC1=O` (single isomer, unassigned) [Compound 1ab] came in with a concentration for half-maximal inhibition (IC50) of less than 100 nM.
On to `CCC1Oc2ccc(CN3CCN(c4ccc(C(=O)NC)nc4)CC3)cc2NC1=O` (centres unmarked) [Compound A1], for which the IC50 is less than 100 nM.
Regarding `CC[C@H]1Oc2ccc(CN3CCN(c4ccc(C(=O)NC)nc4C)CC3)cc2NC1=O` [Compound 2aa], the concentration for half-maximal inhibition (IC50) was less than 100 nM.
`CNC(=O)c1ccc(N2CCN(Cc3ccc4c(c3F)NC(=O)C3(CC3)O4)CC2)c(F)n1` [Compound A9] yielded an IC50 of less than 100 nM.
Still for that read-out and setting: then `CC[C@H]1Oc2ccc(CN3CCN(c4ccc(C(=O)NC)nc4)CC3)cc2NC1=O` [Compound 1aa], with less than 100 nM; and `CC[C@@H]1Oc2ccc(CN3CCN(c4ccc(C(=O)NC)nc4C)CC3)cc2NC1=O` (single isomer, unassigned) [Compound 2ab], with less than 100 nM.
As to `CNC(=O)c1ccc(N2CCN(Cc3ccc4c(c3)NC(=O)C3(CC3)O4)CC2)c(F)n1` [Compound A7], the concentration for half-maximal inhibition (IC50) was less than 100 nM.

In a further assay the target is T1, PARP1. Description: biochemical assay (FP Binding Assay PARP1), Table 2. How it is done:
FP Binding Assay (PARP1, PARP2)
The PARP1 and PARP 2 protein and the PARPi-FL were purchased from BPS Bioscience. The assay buffer was 50 mM Tris pH 8.0, 0.001% Triton X-100, 10 mM MgCl2, 150 mM NaCl. The compounds were diluted into top point concentration in 384PP-plate and transferred serially into an Optiplate-384F plate. Compound (20 nL) or DMSO was added to assay plate and then 10 μL of 40 nM PARP1 or PARP2 (diluted using assay buffer) was added. The assay plate was centrifuged at 1000 rpm for 1 min and then incubated for 30 min at rt. 6 nM PARPi-FL (diluted using assay buffer) (10 uL) was added to the plate (final concentration of PARP1 and PARP2 was 20 nM, and PARPi-FL was 3 nM). After centrifuging at 1000 rpm for 1 min, the assay plate was incubated at rt 4 h. The plates were read using Envision with Excitation filter. The data analysis was done by calculating the inhibition rate using mP value using the following equation. Inhibition (%)=(1−mpC−mpL)/mpH−mpL×100%.
As shown by the results in Table 2, compounds of Formula (I), including pharmaceutically acceptable salts thereof, are effective PARP1 inhibitors.
Target sequence in this assay (P09874 whole entry, species assumed): as the sequence (P09874 whole entry) above
Consider `CNC(=O)c1ccc(N2CCN(Cc3ccc4c(c3)NC(=O)C3(CC3)O4)CC2)c(F)n1` [Compound A7], for which the IC50 was less than 5 nM.
